Patent publication US11246893B2, “Bacteriocin production, compositions and methods of use” (ISOThrive Inc., priority 2016, dated 2022)

Legend:
[1] = test system: head/neck tumors; settings: mouse, in vivo; cited from earlier work
[2] = test system: Weissella viridescens NRRL B-1951; assay: tube assay, W. viridescens growth with nisin A or Z (absorbance); type: cell-based; settings: 15 Hr
Method: 100 g De-Man, Rogosa and Sharpe (MRS) media was prepared in a 500 mL Erlenmeyer to contain 5.5% solids in deionized water (18.2 MΩ, Hydro Service and Supplies. Gaithersburg, Md.). The media was autoclaved (121° C. 15 min), cooled, and inoculated with 1 mL (0.5 mL culture+0.5 mL glycerol, 40%; frozen at −78° C.) of Weissella viridescens NRRL B-1951 (test strain). The culture was incubated at 31° C. overnight (15 Hr).
The next day, stock solutions of either nisin A or Z were prepared in deionized water to contain 31.3 and 33.7 μg/g of each peptide.
100 g MRS media was prepared to contain 5.5% solids. Two sets (one set each for nisin A and nisin Z) of eight Hach-type tubes (Kimble Chase 45066-16100) were prepared. Within each set, in order was added 5.00, 4.95, 4.90, 4.75, 4.50, 4.00, 3.50 and 3.00 g MRS media. The tubes were sealed and autoclaved.
To each tube was added, of the appropriate nisin stock, 0.00, 0.05, 0.10, 0.25, 0.50, 1.00, 1.50, and 2.00 g. Each tube was inoculated with 0.25 g of late-log W. viridescens NRRL B-1951 culture. The tubes were sealed and the absorbance at 600 nm was quickly measured (Hach DR900). The tubes were segregated by set and incubated at 31° C. overnight (15 Hr).
Each tube was thoroughly mixed to suspend settled cells and the absorbance was measured again at 600 nm. The final absorbance values for each sample were corrected for their respective background (taken just after inoculation, scattered light from added cells). The corrected absorption values were a measure of W. viridescens growth.
As indicated above, the absorbance of the culture was measured again at 600 nm as a measure of W. viridescens growth, and the absorbance values for each sample were corrected for their respective background. These corrected absorption values plotted against nisin concentration and minimum inhibiting concentration approximated via regression.
The results were fit via four parameter logistic regression (4PLR), combined into a continuous function with a second assay set (0.65-9.99 μg/g), and are shown in FIG. 11A.

[3] = test system: Weissella viridescens NRRL B-1951; assay: HPLC of tube supernatants: glucose consumption and organic acid production; type: cell-based; settings: for acetic acid in fermentation media: MRS media originally contained 7% acetate
Method: Each tube was sampled (1.5 mL conical polypropylene centrifuge tubes) and centrifuged at 10 kRPM for 10 minutes to remove and suspended cells. The resulting supernatants were filtered (0.2 μm nylon), diluted to 0.5% solids, and analyzed by high pressure liquid chromatography (HPLC, Agilent 1100, refractive index detector and BioRad Ainex HPX-87H column) for consumption of glucose and production of organic acids.
Note that the MRS media originally contained 7% acetate; therefore 7% should be subtracted from the values for acetate in Table 8 to ascertain the amount of acetate generated during the assay.

Sequence: MSTKDFNLDLVSVSKKDSGASPRITSISLCTPGCKTGALMGCNMKTATCNCSIHVSN [nisin Z]
- effect on tumors (in words) [1]: can reduce tumorigenesis in mice
- 91516 ABS 610f ([2]; tube Z2, nisin Z 0.34 μg/g): 1.618
- Corrected ABS 610rs ([2]; tube Z2, nisin Z 0.34 μg/g): 1.146
- 91516 ABS 610f ([2]; tube Z3, nisin Z 0.77 μg/g): 1.526
- Corrected ABS 610rs ([2]; tube Z3, nisin Z 0.77 μg/g): 1.062
- 91516 ABS 610f ([2]; tube Z4, nisin Z 1.58 μg/g): 1.296
- Corrected ABS 610rs ([2]; tube Z4, nisin Z 1.58 μg/g): 0.841
- 91516 ABS 610f ([2]; tube Z5, nisin Z 3.19 μg/g): 0.801
- Corrected ABS 610rs ([2]; tube Z5, nisin Z 3.19 μg/g): 0.359
- 91516 ABS 610f ([2]; tube Z6, nisin Z 6.31 μg/g): 0.426
- Corrected ABS 610rs ([2]; tube Z6, nisin Z 6.31 μg/g): 0.003
- 91516 ABS 610f ([2]; tube Z7, nisin Z 9.54 μg/g): 0.384
- Corrected ABS 610rs ([2]; tube Z7, nisin Z 9.54 μg/g): 0.001
- 91516 ABS 610f ([2]; tube Z8, nisin Z 12.61 μg/g): 0.386
- Corrected ABS 610rs ([2]; tube Z8, nisin Z 12.61 μg/g): 0.001
- Maltotriose in fermentation media ([3]; tube Z2, nisin Z 0.34 μg/g): 0.282 %/brix
- ethanol in fermentation media ([3]; tube Z2, nisin Z 0.34 μg/g): 0.057 %/brix
- formic acid in fermentation media ([3]; tube Z2, nisin Z 0.34 μg/g): 0.303 %/brix
- fructose in fermentation media ([3]; tube Z2, nisin Z 0.34 μg/g): 0.000 %/brix
- glucose in fermentation media ([3]; tube Z2, nisin Z 0.34 μg/g): 22.988 %/brix
- glycerol in fermentation media ([3]; tube Z2, nisin Z 0.34 μg/g): 0.343 %/brix
- lactic acid in fermentation media ([3]; tube Z2, nisin Z 0.34 μg/g): 6.742 %/brix
- maltose in fermentation media ([3]; tube Z2, nisin Z 0.34 μg/g): 0.722 %/brix
- acetic acid in fermentation media ([3]; tube Z2, nisin Z 0.34 μg/g): 8.273 %/brix
- Maltotriose in fermentation media ([3]; tube Z4, nisin Z 1.58 μg/g): 0.265 %/brix
- ethanol in fermentation media ([3]; tube Z4, nisin Z 1.58 μg/g): 0.083 %/brix
- formic acid in fermentation media ([3]; tube Z4, nisin Z 1.58 μg/g): 0.309 %/brix
- fructose in fermentation media ([3]; tube Z4, nisin Z 1.58 μg/g): 0.000 %/brix
- glucose in fermentation media ([3]; tube Z4, nisin Z 1.58 μg/g): 24.153 %/brix
- glycerol in fermentation media ([3]; tube Z4, nisin Z 1.58 μg/g): 0.337 %/brix
- lactic acid in fermentation media ([3]; tube Z4, nisin Z 1.58 μg/g): 5.081 %/brix
- maltose in fermentation media ([3]; tube Z4, nisin Z 1.58 μg/g): 1.007 %/brix
- acetic acid in fermentation media ([3]; tube Z4, nisin Z 1.58 μg/g): 8.247 %/brix
- Maltotriose in fermentation media ([3]; tube Z5, nisin Z 3.19 μg/g): 0.311 %/brix
- ethanol in fermentation media ([3]; tube Z5, nisin Z 3.19 μg/g): 0.067 %/brix
- formic acid in fermentation media ([3]; tube Z5, nisin Z 3.19 μg/g): 0.281 %/brix
- fructose in fermentation media ([3]; tube Z5, nisin Z 3.19 μg/g): 0.000 %/brix
- glucose in fermentation media ([3]; tube Z5, nisin Z 3.19 μg/g): 24.698 %/brix
- glycerol in fermentation media ([3]; tube Z5, nisin Z 3.19 μg/g): 0.321 %/brix
- lactic acid in fermentation media ([3]; tube Z5, nisin Z 3.19 μg/g): 2.995 %/brix
- maltose in fermentation media ([3]; tube Z5, nisin Z 3.19 μg/g): 0.750 %/brix
- acetic acid in fermentation media ([3]; tube Z5, nisin Z 3.19 μg/g): 8.026 %/brix
- Maltotriose in fermentation media ([3]; tube Z6, nisin Z 6.31 μg/g): 0.247 %/brix
- ethanol in fermentation media ([3]; tube Z6, nisin Z 6.31 μg/g): 0.059 %/brix
- formic acid in fermentation media ([3]; tube Z6, nisin Z 6.31 μg/g): 0.267 %/brix
- fructose in fermentation media ([3]; tube Z6, nisin Z 6.31 μg/g): 0.000 %/brix
- glucose in fermentation media ([3]; tube Z6, nisin Z 6.31 μg/g): 25.353 %/brix
- glycerol in fermentation media ([3]; tube Z6, nisin Z 6.31 μg/g): 0.320 %/brix
- lactic acid in fermentation media ([3]; tube Z6, nisin Z 6.31 μg/g): 1.351 %/brix
- maltose in fermentation media ([3]; tube Z6, nisin Z 6.31 μg/g): 0.726 %/brix
- acetic acid in fermentation media ([3]; tube Z6, nisin Z 6.31 μg/g): 7.969 %/brix
- Maltotriose in fermentation media ([3]; tube Z7, nisin Z 9.54 μg/g): 0.291 %/brix
- ethanol in fermentation media ([3]; tube Z7, nisin Z 9.54 μg/g): 0.065 %/brix
- formic acid in fermentation media ([3]; tube Z7, nisin Z 9.54 μg/g): 0.263 %/brix
- fructose in fermentation media ([3]; tube Z7, nisin Z 9.54 μg/g): 0.000 %/brix
- glucose in fermentation media ([3]; tube Z7, nisin Z 9.54 μg/g): 25.501 %/brix
- glycerol in fermentation media ([3]; tube Z7, nisin Z 9.54 μg/g): 0.335 %/brix
- lactic acid in fermentation media ([3]; tube Z7, nisin Z 9.54 μg/g): 1.431 %/brix
- maltose in fermentation media ([3]; tube Z7, nisin Z 9.54 μg/g): 0.895 %/brix
- acetic acid in fermentation media ([3]; tube Z7, nisin Z 9.54 μg/g): 8.026 %/brix
- Maltotriose in fermentation media ([3]; tube Z8, nisin Z 12.61 μg/g): 0.318 %/brix
- ethanol in fermentation media ([3]; tube Z8, nisin Z 12.61 μg/g): 0.148 %/brix
- formic acid in fermentation media ([3]; tube Z8, nisin Z 12.61 μg/g): 0.299 %/brix
- fructose in fermentation media ([3]; tube Z8, nisin Z 12.61 μg/g): 0.000 %/brix
- glucose in fermentation media ([3]; tube Z8, nisin Z 12.61 μg/g): 25.740 %/brix
- glycerol in fermentation media ([3]; tube Z8, nisin Z 12.61 μg/g): 0.346 %/brix
- lactic acid in fermentation media ([3]; tube Z8, nisin Z 12.61 μg/g): 1.652 %/brix
- maltose in fermentation media ([3]; tube Z8, nisin Z 12.61 μg/g): 0.876 %/brix
- acetic acid in fermentation media ([3]; tube Z8, nisin Z 12.61 μg/g): 8.261 %/brix
